The values below come from US8461389B2, “Psycho-pharmaceuticals” (University College Dublin, National University of Ireland, …, priority 2008, dated 2013).

For test [1], the system named is rat pyloric muscle. The test can be described thus: Electrical field stimulation (EFS)-mediated relaxation of isolated pyloric muscle. The note with it: 25 μM Captodiamine; 10 min treatment, 10 μM-100 μM tested. Here is the method:
Inhibition of pyloric relaxation by administration of captodiamine was performed as described in Kashyap P., Micci M., Pasricha S., Pasricha P., The D2/D3 Agonist PD 128907 (R-(+)-trans-3,4a,10b-Tetrahydro-4-Propyl-2H,5H-[1]Benzopyrano[4,3-b]-1,4-Oxazin-9-ol) Inhibits Stimulated Pyloric Relaxation and Spontaneous Gastric Emptying, 2007, Digestive Diseases and Sciences.
Male Wistar rats were killed by cervical dislocation and decapitation. The stomach was removed and placed in oxygenated Krebs buffer (118 mM NaCl, 4.7 mM KCl, 1.2 mM KH2PO4, 1.2 mM MgSO4, 4.2 mM NaHCO3, 2 mM CaCl2, 10 mM glucose, 200 μM sulphinpyrazone and 10 mM Hepes, pH 7.4). […] The tissue was cut longitudinally along the mesenteric border and trimmed to 2 mm in width. At one end, the tissue was mounted onto an L-shaped electrode and placed into a 25 ml chamber containing Krebs buffer, maintained at 37° C. and continuously bubbled with 95% O2/5% CO2. The other end of the tissue was attached to an isometric force transducer using string sutured to tissue. Tension was monitored, recorded and analyzed by a digital recording device (PowerLab and Chart 5, ADInstruments). […] Spontaneous contraction of the pyloric strips were observed and recorded following the equilibration phase. […] The weight of the tissue was measured at the end of each session. […]

Test [2] concerns the target T1, serotonin 5HT2c receptor (Homo sapiens, UniProt P28335).
T1 construct: Novascreen (contract screen)
T1 sequence (P28335 33-458): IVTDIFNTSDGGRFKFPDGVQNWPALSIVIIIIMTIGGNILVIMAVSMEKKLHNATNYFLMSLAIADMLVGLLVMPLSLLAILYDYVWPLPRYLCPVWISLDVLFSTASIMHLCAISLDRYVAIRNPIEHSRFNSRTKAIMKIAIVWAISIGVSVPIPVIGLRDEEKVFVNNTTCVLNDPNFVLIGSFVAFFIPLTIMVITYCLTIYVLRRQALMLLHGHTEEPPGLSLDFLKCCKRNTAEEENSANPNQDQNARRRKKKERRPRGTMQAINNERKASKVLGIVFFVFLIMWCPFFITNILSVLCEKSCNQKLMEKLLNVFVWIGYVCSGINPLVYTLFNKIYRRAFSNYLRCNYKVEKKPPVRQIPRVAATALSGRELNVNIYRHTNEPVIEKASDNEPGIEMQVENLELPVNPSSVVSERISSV
Put plainly: Novascreen receptor affinity screen (competition with reference ligand), 5HT2c. The conditions noted are these: 1 μM Captodiamine competing with a reference ligand; read-out: percent target inhibition, serotonin 5HT2c receptor. It counts as binding. Here is the method:
(§1) The Structure (FIG. 9A), receptor affinity (FIG. 9B), pharmacokinetics (FIG. 9C) and growth factor modulation (FIG. 9D) of Captodiamine are provided. Analysis of receptor affinities was performed by Novascreen™ and those displacing >20% of the natural ligand are indicated by the filled boxes. Blood levels of Captodiamine were determined by GC mass spectroscopy. In separate samples taken from a cannulated jugular at increasing time intervals following a single intraperitoneal injection of tha drug (5 mg/kg). Growth factor analysis was performed using tissue homogenates and ELISA assays specific for each growth factor (Promega). Values were analysed using a Student t-test and those with a p value<0.05 were accepted as significant and are indicated with an asterisk.
(§2) The higher the target inhibition value, the greater the affinity Captodiamine has for this particular receptor as it displaces a greater proportion of the reference ligand. This assay is an automated high throughput assay performed on cell lines that express only one type of receptor and was carried out by Novascreen (www.novascreen.com). Receptor affinity is a good starting point for determining the mechanism of action for a particular compound.

Test [3] has as its target T2, Sigma 1 receptor (Homo sapiens, UniProt Q99720).
T2 construct: Novascreen (contract screen)
The test can be described thus: Novascreen receptor affinity screen (competition with reference ligand), Sigma 1. The test is classed as binding. The conditions noted are these: 1 μM Captodiamine competing with a reference ligand; read-out: percent target inhibition, Sigma 1 receptor. Here is the method: as §1, §2

T2 sequence (Q99720 whole entry, species assumed): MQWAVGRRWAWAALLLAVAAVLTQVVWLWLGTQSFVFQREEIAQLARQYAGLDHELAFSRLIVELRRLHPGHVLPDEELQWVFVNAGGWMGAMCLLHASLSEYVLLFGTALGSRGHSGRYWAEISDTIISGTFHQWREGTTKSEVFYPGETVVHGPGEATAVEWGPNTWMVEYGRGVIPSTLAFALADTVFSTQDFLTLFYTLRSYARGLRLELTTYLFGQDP

For orientation: inhibition means the drop in the measured response relative to a control, in per cent. In the case of `CCCCSc1ccc(C(SCCN(C)C)c2ccccc2)cc1` (stereo not drawn) [Captodiamine, 2-[(4-butylsulfanylphenyl)-phenyl-methyl]sulfanyl-N,N-dimethyl-ethanamin], the “effect on EFS-mediated relaxation of the rat pyloric muscle” value in test [1] was “attenuation of the EFS-mediatated relaxation”. Besides, the results for the inhibition at 1 µM in test [2] and in test [3] were greater than 80% and greater than 90%, respectively.
